The source of these data is patent EP4667458A1 (Kanaph Therapeutics Inc., priority 2023, dated 2024).

Molecules are shown by their SMILES. Bounds are passed on as bounds.

Broadly, the IC50 is the concentration that inhibits the measured activity by half. Read a high IC50 as weaker potency in that assay.

Experiment [1] has as its system lung cancer cell line NCI-H358 having the KRAS G12C variant. The experiment can be described thus: Cell viability (Cell Titer-Glo) on combined administration, NCI-H358. The class given is cell-based. The source says:
When the example compound was used in combination with an anticancer agent, the effect on the growth ability of cancer cells expressing KRAS variant or EGFR variant was confirmed. In order to confirm the effect of the example compound in combination with a MEK inhibitor or a KRAS G12C inhibitor in the cell line having the KRAS variant, the cell growth inhibitory effect by the treatment of the example compound in combination with a MEK inhibitor or a KRAS G12C inhibitor was confirmed in the gastric cancer cell line SNU-1 and the pancreatic cancer cell line KP4 having the KRAS G12D variant, the lung cancer cell line NCI-H358 and the pancreatic cancer cell line MIA PaCa-2 having the KRAS G12C variant, the colorectal cancer cell line SW480 having the KRAS G12V variant, the lung cancer cell line A549 having the KRAS G12S variant, the colorectal cancer cell line LoVo having the KRAS G13D variant. In addition, in order to confirm the effect of the example compound in combination with an EGFR inhibitor in the cell line having the EGFR variant, the cell growth inhibitory effect by the treatment of the example compound in combination with an EGFR inhibitor was confirmed in the lung cancer cell line H1975 having the EGFR L858R/T790M variant and the lung cancer cell line HCC827 having the EGFR Del19 variant. […]
On the technique in general: Cellular ATP, detected with luciferase, serves as a proxy for viable cell number.

Experiment [2] addresses T1, KRAS^G12C::SOS1 (Homo sapiens, UniProt Q07889).
T1 sequence (Q07889 1-1333): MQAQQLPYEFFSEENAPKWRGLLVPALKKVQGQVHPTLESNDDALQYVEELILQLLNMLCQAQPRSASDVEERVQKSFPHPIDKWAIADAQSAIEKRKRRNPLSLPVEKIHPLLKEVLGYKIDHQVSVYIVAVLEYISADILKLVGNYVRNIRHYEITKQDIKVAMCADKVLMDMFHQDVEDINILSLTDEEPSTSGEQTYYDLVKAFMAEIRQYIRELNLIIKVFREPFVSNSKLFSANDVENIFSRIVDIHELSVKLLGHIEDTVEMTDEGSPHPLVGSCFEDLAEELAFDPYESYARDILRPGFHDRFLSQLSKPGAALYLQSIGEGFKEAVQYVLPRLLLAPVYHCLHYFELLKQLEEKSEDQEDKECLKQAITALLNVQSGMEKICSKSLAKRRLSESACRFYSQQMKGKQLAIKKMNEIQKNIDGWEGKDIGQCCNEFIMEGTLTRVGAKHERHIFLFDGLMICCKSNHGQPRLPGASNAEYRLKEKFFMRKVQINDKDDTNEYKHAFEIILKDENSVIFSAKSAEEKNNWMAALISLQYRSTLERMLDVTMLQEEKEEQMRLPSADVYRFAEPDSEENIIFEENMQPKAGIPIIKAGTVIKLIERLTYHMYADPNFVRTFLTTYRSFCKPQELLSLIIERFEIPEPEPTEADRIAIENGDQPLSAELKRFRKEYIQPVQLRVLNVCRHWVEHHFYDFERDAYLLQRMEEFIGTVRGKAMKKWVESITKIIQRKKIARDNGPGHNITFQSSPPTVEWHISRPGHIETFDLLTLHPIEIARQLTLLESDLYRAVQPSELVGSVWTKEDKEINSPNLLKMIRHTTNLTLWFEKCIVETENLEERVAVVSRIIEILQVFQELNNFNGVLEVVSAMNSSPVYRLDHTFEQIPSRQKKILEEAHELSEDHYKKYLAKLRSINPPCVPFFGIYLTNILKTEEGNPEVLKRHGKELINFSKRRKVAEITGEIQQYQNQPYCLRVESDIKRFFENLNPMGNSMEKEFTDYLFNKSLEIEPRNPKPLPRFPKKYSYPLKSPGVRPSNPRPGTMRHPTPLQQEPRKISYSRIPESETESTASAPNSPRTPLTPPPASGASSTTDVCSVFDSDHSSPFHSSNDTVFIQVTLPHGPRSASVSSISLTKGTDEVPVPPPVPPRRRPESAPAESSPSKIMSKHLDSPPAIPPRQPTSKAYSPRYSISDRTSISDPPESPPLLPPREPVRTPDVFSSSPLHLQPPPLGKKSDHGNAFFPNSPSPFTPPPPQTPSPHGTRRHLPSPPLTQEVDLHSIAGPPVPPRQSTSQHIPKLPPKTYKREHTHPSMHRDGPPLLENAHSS
The experiment can be described thus: KRAS G12C::SOS1 protein-protein interaction (PPI) inhibition assay (HTRF binding kit). (In general: Time-resolved FRET reads energy transfer from a long-lived donor to a nearby acceptor.)

The target in experiment [3] is T2, SOS1 (Homo sapiens, UniProt Q07889).
T2 construct: adding equal amounts of HIS-SOS1cat (160 nM; Cytoskeleton, US); His; purchased Cytoskeleton, US
T2 sequence (Q07889 564-1049 limits assumed): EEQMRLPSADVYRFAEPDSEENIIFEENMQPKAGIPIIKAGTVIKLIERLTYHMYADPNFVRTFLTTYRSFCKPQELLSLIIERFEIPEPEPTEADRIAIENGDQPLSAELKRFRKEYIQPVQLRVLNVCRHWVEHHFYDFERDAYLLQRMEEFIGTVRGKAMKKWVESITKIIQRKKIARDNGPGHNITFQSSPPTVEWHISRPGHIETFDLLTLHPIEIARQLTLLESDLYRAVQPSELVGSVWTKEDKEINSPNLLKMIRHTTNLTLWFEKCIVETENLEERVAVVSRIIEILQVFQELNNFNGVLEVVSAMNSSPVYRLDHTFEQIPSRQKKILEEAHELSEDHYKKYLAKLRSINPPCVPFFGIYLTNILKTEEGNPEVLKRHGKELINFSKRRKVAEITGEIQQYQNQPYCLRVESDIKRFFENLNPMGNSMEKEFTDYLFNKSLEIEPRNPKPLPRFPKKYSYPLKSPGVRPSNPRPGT
Nature of the experiment: SOS-catalyzed nucleotide exchange assay (HTRF, SOS1-mediated GTP loading of KRAS G12D). Type of experiment: biochemical. In outline:
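SOS1cat (HIS-tagged) preincubated 10 min at room temperature with compound (128 pM-10 µM), then GST-KRAS G12D with anti-GST terbium added; GTP loading tracked as HTRF with a DY-647P1 GTP analogue after 30 min, buffer HEPES pH 7.4. GEF-free wells for normalization; IC50 derived.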

Experiment [4] concerns lung cancer cell line H358 having the KRAS G12C variant. The experiment can be described thus: SynergyScreen determination of combination concentration (ATPlite 1Step cell viability). Type of experiment: cell-based. The conditions noted are these: EFFECT20 applied as final treatment concentration in the combination experiment. On the procedure: The cells were treated by adding 5 µL of a test solution of Example B01 per well to a 384 well plate in which the lung cancer cell line H358 having the KRAS G12C variant was dispensed so that the final concentration of the substance was 31.6 µM to 0.00316 µM in 50 µL of the solution per well. The cells treated with Example B01 were cultured under conditions of 37 °C and 5% carbon dioxide for 72 h or 120 h. In order to measure cell viability, each well was treated with 24 µL of ATPlite 1Step™ (PerkinElmer) solution, then mixed for 2 minutes, and reacted by blocking light for 5 minutes, and then the luminescence signal was measured using an Envision multilabel reader (PerkinElmer). The cell viability was determined according to the formula below, and the concentration (EFFECT20) of Example B01 that induces 20% cell death was calculated using IDBS XLfit 5. The EFFECT20 concentration of Example B01 determined through the experiment was applied as the final treatment concentration of Example B01 during the combination effect experiment. [formula]
In order to confirm the effect of Example B01 in combination with various anticancer agents, a total of 42 anticancer agents, including cytotoxic anticancer agents and targeted anticancer agents, were used for evaluation (Table 31). […]

Experiment [5] can be described thus: Cell viability with a combined anticancer agent plus Example B01 (Synergy 1 / Synergy 2). Type of experiment: cell-based. Particulars: culture time 72 h; printed in the anticancer agent concentration column.

As to `CNCc1ccc(Cl)cc1-c1ccc([C@@H](C)NC(=O)c2ccc(=O)n(-c3ccccc3F)n2)s1` [Example 295, N-[(1R)-1-[5-[5-chloro-2-(methylaminomethyl)phenyl]-2-thienyl]ethyl]-1-(2-fluorophenyl)-6-oxo-pyridazine-3-carboxamide], the cell viability result in experiment [1] (INK-128 (3.2-100 nM) in combination with Example 295 (0-300 nM) compared to INK-128 alone, 72 h, FIG. 1) is reported as “decreased”; in experiment [1] (sotorasib (0.14-10 nM) in combination with Example 295 (0-300 nM) compared to sotorasib alone, FIG. 2) it was “decreased”. The IC50 in experiment [2] is < 1000 nM.

Turning to `C[C@@H](NC(=O)c1ccc(=O)n(-c2cncc(-c3cnnn3C)c2)n1)c1cccc(C(F)(F)F)c1F` [Example B01, N-[(1R)-1-[2-fluoro-3-(trifluoromethyl)phenyl]ethyl]-1-[5-(3-methyltriazol-4-yl)-3-pyridyl]-6-oxo-pyridazine-3-carboxamide], the IC50 in experiment [3] and in experiment [2] was < 1000 nM in each case. In addition, the “concentration (EFFECT20) that induces 20% cell death” value is recorded as 1854 nM in experiment [4] (culture time 72 h) and 652 nM in experiment [4] (culture time 120 h).

As to `C[C@]12C=CC(=O)C=C1CC[C@@H]1[C@@H]2[C@@H](O)C[C@@]2(C)[C@H]1CC[C@]2(O)C(=O)CO` [Prednisolone, prednisolone], the “concentration dependence of the effect of the anticancer agent on cell viability” value in experiment [5] is on record as “No concentration -dependent change”.
